Laboratory results as given in US12377092B2, “Polycomb inhibitors and uses thereof” (FONDAZIONE ISTITUTO FIRC DI ONCOLOGIA MOLECOLARE (IFOM), priority 2017, dated 2025).

Columns and labels:
Assay type in all cases: cell-based, mouse
LEF1 = assay: Immunofluorescence of LEF1, CCM3 knock out cells; settings: PTC209 vs DMSO
Source text: The inventors started to analysed interaction between Bmi1 and β-catenin pathway. By immunofluorescence analysis on wild type and CCM3 knock out cells treated with PTC209 and DMSO as control, as already mentioned, the inventors checked expression of LEF1, a transcription factor that is directly activated by β-catenin and is responsible for transcriptional activation of Axin2 (Behrens et al., 1996), to see whether Bmi1 inhibition interfered with β-catenin pathway activation.

[1] = system: EndMT markers (Klf4, Sca1 and Fsp1); assay: RT-PCR of EndMT markers in wild type cells infected with lentivirus expressing LefΔN-β-catΔC; settings: wild type cells infected with 40 ul LefΔN-β-catΔC lentivirus; PTC209 72 hours from nine days after infection
Protocol: RNA extraction was performed both with (A) RNeasy kits (Promega) or (B) RNAeasy Mini Kit (QIAGEN). The latter allows also the extraction of proteins from the same sample. The RNA (500 ng) was reverse transcribed with random hexamers (High Capacity cDNA Archive kits; Applied Biosystems) in a final volume of 30 uL. Reaction were made with a thermocycler (Eppendorf) 10 min at 25° C. followed by 2 hours at 37° C. cDNA (5 ng) was amplified in triplicate in a reaction volume of 15 uL using TaqMan Gene Expression Assays (Applied Biosystems) in a ABI/Prism 7900 HT using a pre PCR step of 10 min at 95° C., followed by 40 cycles of 15 seconds at 95° C. and 60 seconds at 60° C. For each sample, the expression level was determined with the comparative threshold cycle (Ct) method, and normalized to the housekeeping genes encoding 18S, glyceraldehyde-3-phosphate dehydrogenase (GAPDH) and hypoxanthine-guanine phosphoribosyltransferase (hprt1). Ct or threshold cycle, represents the PCR cycle at which an increase in reporter fluorescence above a base-line signal can first be detect.
One day before infection, 300.000 cells/well were seeded in a 6-wells plate in complete medium as described before.
The day after 40 uL per well of the concentrated virus was added to the cells medium and leaved overnight at 37° C. […]

[2] = system: EndMT markers (Klf4, Sca1 and Fsp1); assay: RT-PCR of EndMT markers, freshly isolated brain endothelial cells knockout for CCM3; settings: freshly isolated brain endothelial cells CCM3fl/fl+TAT-Cre; PTC209 72 hours from the day after recombination
Source text: Brain-derived ECs were isolated from VECPAC/CCM3^fl/fl/R26-Confetti. Brains were processed with two different MiltenyiBiotec kits depending on the age at which the mice were sacrificed: “Adult Brain Dissociation Kit”, for […] 7-days old mice, or “Neural Tissue Dissociation Kit” for less than 7-days old mice. All protocols and data sheet are available at www.milteniyibiotec.com.
Recombination of the loxP-flanked genes was induced by treating cells the day after the first splitting (1:2) with 100 ug/mL TAT-Cre-recombinase for 60 minutes in HyClone™ ADCF-MAb medium (GE Healthcare) without serum followed by 100 uM chloroquine for 30 minutes. The cells were washed with HyClone™ ADCF-MAb medium and cultured with complete medium.
RNA extraction was performed both with (A) RNeasy kits (Promega) or (B) RNAeasy Mini Kit (QIAGEN). The latter allows also the extraction of proteins from the same sample. […] For each sample, the expression level was determined with the comparative threshold cycle (Ct) method, and normalized to the housekeeping genes encoding 18S, glyceraldehyde-3-phosphate dehydrogenase (GAPDH) and hypoxanthine-guanine phosphoribosyltransferase (hprt1). Ct or threshold cycle, represents the PCR cycle at which an increase in reporter fluorescence above a base-line signal can first be detect. […]

## COc1cc(Br)c(Nc2nc(-c3c(C)nc4ncccn34)cs2)c(Br)c1 [PTC209, N-(2,6-dibromo-4-methoxyphenyl)-4-(2-methylimidazo[1,2-a]pyrimidin-3-yl)thiazol-2-amine]
LEF1
  LEF1 (immunofluorescence): reduced
[1]
  Sca1 and Fsp1 upregulation (RT-PCR): strongly reduced
[2]
  Klf4 expression (RT-PCR): not downregulated
  Sca1 and Fsp1 expression (RT-PCR): strongly reduced
